Measured values from patent publication US12502362B2, “Inhibitors of nucleotidyltransferase superfamily enzymes as antibiotics” (priority 2017, dated 2025).
Read-outs that look alike come from different tables or passages of the source.

Legend:
[1] = test system: MDR Acinetobacter baumannii; type: cell-based
Description: (§1) All these MDR-bacteria are at least resistant to two classes of the antibiotics among five groups and/or specific antibiotics including quinolones/fluorquinolones, carbapenems, cephalosporins, aminoglycosides and piperacillin-tazobactam.

MDR E. coli = type: cell-based
Description: as §1

[2] = test system: Coagulase negative Staphylococcus; experiment: Antibiotic susceptibility of coagulase negative Staphylococcus strains; type: cell-based
Citrobacter koseri = experiment: Antibiotic susceptibility of Citrobacter koseri strain; type: cell-based; conditions: Ck1 (Citrobacter koseri)
Description: as §1

[3] = test system: S. aureus ATCC strains and MRSA; type: cell-based, Staphylococcus aureus
Morganella morganii = experiment: Antibiotic susceptibility of Morganella morganii strain; type: cell-based; conditions: Mm1 (Morganella morganii)
Description: as §1

[4] = test system: Staphylococcus epidermidis; type: cell-based
Method: (§2) It was also tested whether compounds #63 and #285 can inhibit other coagulase-negative Staphylococcus (CNS) including S. epidermidis, S. hominis, etc. […].

Staphylococcus hominis = type: cell-based
Method: as §2

Klebsiella pneumonia = experiment: Antibiotic susceptibility of Klebsiella pneumonia strains; type: cell-based
Description: as §1

[5] = test system: Enterobacter cloacae complex; experiment: Antibiotic susceptibility of Enterobacter cloacae complex strain; type: cell-based; conditions: Ecc1 (Enterobacter cloacae complex)
Description: as §1

[6] = CNS1 (Coagulase negative Staphylococcus)
[7] = CNS2 (Coagulase negative Staphylococcus)

Compound: O=C1CN(/N=C/c2ccc([N+](=O)[O-])o2)C(=O)N1 [NIT, Nitrofurantoin]
- Antibiotic susceptibility ([1]; Ab1 (Acinetobacter baumannii)): R
- Antibiotic susceptibility ([1]; Ab2 (Acinetobacter baumannii)): R
- Antibiotic susceptibility ([1]; Ab3 (Acinetobacter baumannii)): R
- Antibiotic susceptibility ([1]; Ab4 (Acinetobacter baumannii)): R
- Antibiotic susceptibility ([1]; Ab5 (Acinetobacter baumannii)): R
- Antibiotic susceptibility (MDR E. coli; Ec1 (E. coli)): S
- Antibiotic susceptibility (MDR E. coli; Ec2 (E. coli)): S
- Antibiotic susceptibility (MDR E. coli; Ec3 (E. coli)): S
- Antibiotic susceptibility (MDR E. coli; Ec4 (E. coli)): S
- Antibiotic susceptibility (MDR E. coli; Ec5 (E. coli)): S
- Antibiotic susceptibility [2, 6]: S
- Antibiotic susceptibility [2, 7]: S
- Antibiotic susceptibility (Citrobacter koseri): R
- Antibiotic susceptibility ([3]; S. aureus ATCC 25923): S
- Antibiotic susceptibility ([3]; S. aureus ATCC 29213): S
- Antibiotic susceptibility ([3]; S. aureus ATCC BAA 976): S
- Antibiotic susceptibility ([3]; S. aureus ATCC BAA 977): S
- Antibiotic susceptibility ([3]; S. aureus ATCC BAA 1026): S
- Antibiotic susceptibility ([3]; Sa1 (MRSA)): S
- Antibiotic susceptibility ([3]; Sa2 (MRSA)): S
- Antibiotic susceptibility ([3]; Sa3 (MRSA)): S
- Antibiotic susceptibility ([3]; Sa6 (MRSA)): S
- Antibiotic susceptibility ([3]; Sa7 (MRSA)): S
- Antibiotic susceptibility ([3]; Sa9 (MRSA)): S
- Antibiotic susceptibility ([3]; Sa11 (MRSA)): S
- Antibiotic susceptibility ([3]; Sa12 (MRSA)): S
- Antibiotic susceptibility ([3]; Sa14 (MRSA)): S
- Antibiotic susceptibility ([3]; Sa15 (MRSA)): S
- Antibiotic susceptibility ([3]; Sa16 (MRSA)): S
- Antibiotic susceptibility ([3]; Sa17 (MRSA)): S
- Antibiotic susceptibility ([3]; Sa18 (MRSA)): S
- Antibiotic susceptibility ([3]; Sa19 (MRSA)): S
- Antibiotic susceptibility ([3]; Sa20 (MRSA)): S
- Antibiotic susceptibility ([3]; Sa21 (MRSA)): S
- Antibiotic susceptibility ([3]; Sa22 (MRSA)): S
- Antibiotic susceptibility ([3]; Sa23 (MRSA)): S
- Antibiotic susceptibility (Morganella morganii): R
- Antibiotic susceptibility [4]: S
- Antibiotic susceptibility (Staphylococcus hominis): S
- Antibiotic susceptibility (Klebsiella pneumonia; Kp1 (Klebsiella pneumonia)): S
- Antibiotic susceptibility (Klebsiella pneumonia; Kp6 (Klebsiella pneumonia)): R
- Antibiotic susceptibility [5]: S

Compound: Gentamicin
- Antibiotic susceptibility ([1]; Ab1 (Acinetobacter baumannii)): S
- Antibiotic susceptibility ([1]; Ab2 (Acinetobacter baumannii)): R
- Antibiotic susceptibility ([1]; Ab3 (Acinetobacter baumannii)): R
- Antibiotic susceptibility ([1]; Ab4 (Acinetobacter baumannii)): R
- Antibiotic susceptibility ([1]; Ab5 (Acinetobacter baumannii)): R
- Antibiotic susceptibility (MDR E. coli; Ec1 (E. coli)): R
- Antibiotic susceptibility (MDR E. coli; Ec2 (E. coli)): R
- Antibiotic susceptibility (MDR E. coli; Ec3 (E. coli)): R
- Antibiotic susceptibility (MDR E. coli; Ec4 (E. coli)): S
- Antibiotic susceptibility (MDR E. coli; Ec5 (E. coli)): S
- Antibiotic susceptibility [2, 6]: S
- Antibiotic susceptibility [2, 7]: S
- Antibiotic susceptibility (Citrobacter koseri): R
- Antibiotic susceptibility ([3]; S. aureus ATCC 25923): S
- Antibiotic susceptibility ([3]; S. aureus ATCC 29213): S
- Antibiotic susceptibility ([3]; S. aureus ATCC BAA 976): S
- Antibiotic susceptibility ([3]; S. aureus ATCC BAA 977): S
- Antibiotic susceptibility ([3]; S. aureus ATCC BAA 1026): R
- Antibiotic susceptibility ([3]; Sa1 (MRSA)): S
- Antibiotic susceptibility ([3]; Sa2 (MRSA)): S
- Antibiotic susceptibility ([3]; Sa3 (MRSA)): S
- Antibiotic susceptibility ([3]; Sa5 (MRSA)): S
- Antibiotic susceptibility ([3]; Sa6 (MRSA)): S
- Antibiotic susceptibility ([3]; Sa7 (MRSA)): S
- Antibiotic susceptibility ([3]; Sa8 (MRSA)): S
- Antibiotic susceptibility ([3]; Sa9 (MRSA)): S
- Antibiotic susceptibility ([3]; Sa10 (MRSA)): S
- Antibiotic susceptibility ([3]; Sa11 (MRSA)): S
- Antibiotic susceptibility ([3]; Sa12 (MRSA)): S
- Antibiotic susceptibility ([3]; Sa14 (MRSA)): S
- Antibiotic susceptibility ([3]; Sa15 (MRSA)): S
- Antibiotic susceptibility ([3]; Sa16 (MRSA)): S
- Antibiotic susceptibility ([3]; Sa17 (MRSA)): S
- Antibiotic susceptibility ([3]; Sa18 (MRSA)): S
- Antibiotic susceptibility ([3]; Sa19 (MRSA)): S
- Antibiotic susceptibility ([3]; Sa20 (MRSA)): S
- Antibiotic susceptibility ([3]; Sa21 (MRSA)): S
- Antibiotic susceptibility ([3]; Sa22 (MRSA)): S
- Antibiotic susceptibility ([3]; Sa23 (MRSA)): S
- Antibiotic susceptibility (Morganella morganii): R
- Antibiotic susceptibility ([4]; Se1 (Staphylococcus epidermidis)): S
- Antibiotic susceptibility ([4]; Se2 (Staphylococcus epidermidis)): S
- Antibiotic susceptibility ([4]; Se3 (Staphylococcus epidermidis)): R
- Antibiotic susceptibility ([4]; Se4 (Staphylococcus epidermidis)): R
- Antibiotic susceptibility ([4]; Se5 (Staphylococcus epidermidis)): I
- Antibiotic susceptibility (Staphylococcus hominis; Sh1 (Staphylococcus hominis)): S
- Antibiotic susceptibility (Staphylococcus hominis; Sh2 (Staphylococcus hominis)): S
- Antibiotic susceptibility (Staphylococcus hominis; Sh3 (Staphylococcus hominis)): S
- Antibiotic susceptibility (Klebsiella pneumonia; Kp1 (Klebsiella pneumonia)): S
- Antibiotic susceptibility (Klebsiella pneumonia; Kp6 (Klebsiella pneumonia)): S
- Antibiotic susceptibility [5]: R

Compound: Trimethoprim-Sulfamethoxazole [SXT]
- Antibiotic susceptibility ([1]; Ab1 (Acinetobacter baumannii)): R
- Antibiotic susceptibility ([1]; Ab2 (Acinetobacter baumannii)): R
- Antibiotic susceptibility ([1]; Ab3 (Acinetobacter baumannii)): R
- Antibiotic susceptibility ([1]; Ab4 (Acinetobacter baumannii)): R
- Antibiotic susceptibility ([1]; Ab5 (Acinetobacter baumannii)): R
- Antibiotic susceptibility (MDR E. coli; Ec1 (E. coli)): R
- Antibiotic susceptibility (MDR E. coli; Ec2 (E. coli)): R
- Antibiotic susceptibility (MDR E. coli; Ec3 (E. coli)): R
- Antibiotic susceptibility (MDR E. coli; Ec4 (E. coli)): S
- Antibiotic susceptibility (MDR E. coli; Ec5 (E. coli)): R
- Antibiotic susceptibility [2, 6]: S
- Antibiotic susceptibility [2, 7]: S
- Antibiotic susceptibility (Citrobacter koseri): R
- Antibiotic susceptibility ([3]; S. aureus ATCC 25923): S
- Antibiotic susceptibility ([3]; S. aureus ATCC 29213): S
- Antibiotic susceptibility ([3]; S. aureus ATCC BAA 976): S
- Antibiotic susceptibility ([3]; S. aureus ATCC BAA 977): S
- Antibiotic susceptibility ([3]; S. aureus ATCC BAA 1026): R
- Antibiotic susceptibility ([3]; Sa1 (MRSA)): R
- Antibiotic susceptibility ([3]; Sa2 (MRSA)): S
- Antibiotic susceptibility ([3]; Sa3 (MRSA)): S
- Antibiotic susceptibility ([3]; Sa5 (MRSA)): S
- Antibiotic susceptibility ([3]; Sa6 (MRSA)): S
- Antibiotic susceptibility ([3]; Sa7 (MRSA)): S
- Antibiotic susceptibility ([3]; Sa8 (MRSA)): S
- Antibiotic susceptibility ([3]; Sa9 (MRSA)): S
- Antibiotic susceptibility ([3]; Sa10 (MRSA)): S
- Antibiotic susceptibility ([3]; Sa11 (MRSA)): S
- Antibiotic susceptibility ([3]; Sa12 (MRSA)): S
- Antibiotic susceptibility ([3]; Sa14 (MRSA)): S
- Antibiotic susceptibility ([3]; Sa15 (MRSA)): R
- Antibiotic susceptibility ([3]; Sa16 (MRSA)): S
- Antibiotic susceptibility ([3]; Sa17 (MRSA)): S
- Antibiotic susceptibility ([3]; Sa18 (MRSA)): S
- Antibiotic susceptibility ([3]; Sa19 (MRSA)): S
- Antibiotic susceptibility ([3]; Sa20 (MRSA)): S
- Antibiotic susceptibility ([3]; Sa21 (MRSA)): S
- Antibiotic susceptibility ([3]; Sa22 (MRSA)): S
- Antibiotic susceptibility ([3]; Sa23 (MRSA)): S
- MRSA strains resistant ([3]; number of resistant strains out of 21 MRSA strains): 2/21
- Antibiotic susceptibility (Morganella morganii): R
- Antibiotic susceptibility [4]: R
- Antibiotic susceptibility (Staphylococcus hominis): R and S
- Antibiotic susceptibility (Klebsiella pneumonia; Kp1 (Klebsiella pneumonia)): R
- Antibiotic susceptibility (Klebsiella pneumonia; Kp6 (Klebsiella pneumonia)): R
- Antibiotic susceptibility [5]: S
